From patent publication US20110224079A1, “SPIROHETEROCYCLIC N-OXYAMIDES AS PESTICIDES” (SYNGENTA CROP PROTECTION LLC, priority 2008, published 2011) come the findings set out here.

Molecules are shown by their SMILES.

The subject of series [1] is pepper plants. The following applies: in vivo. Here is the method: (§1) Comparison of the Insecticidal Activity and Crop Compatibility of Compounds According to the Invention with a Compound from the State of the Art (Compound No. A18 Described on Page 97 of WO09/049,851)
(§2) (Mixed Population, Drench Application in Field Soil, Persistence, Plant Damage Evaluation)
(§3) Samples are assessed 7 days after infestation on mortality. Treated plants are re-infested 7, 14, 21 and 28 days after application. Evaluation is always done 7 days after infestation. Plants are also checked for damage (phytotoxicity), visual assessment being made using a 0-100% rating scale (100%=total damage to plant; 0%=no damage to plant).

The subject of series [2] is Myzus persicae (green peach aphid). The experiment in a line: Example B15: drench activity (death rate, persistence) against Myzus persicae on pepper plants in field soil, comparison with A18. The class given is in vivo. Particulars: for Mortality (%) xx days after application (drench, systemic action, persistence): 12.5 ppm drench, pepper plants in field soil, evaluation 7 days after infestation; for insecticidal action on Myzus persicae compared with state-of-the-art compound A18 (in words): drench application on pepper plants, summary of Table B15. As to the method:
as §1, §2, §3

For series [3] the test system is unchanged. Briefly: Example B17: activity against Myzus persicae on sprayed pepper plants (feeding/residual contact). Particulars: 144 h, infested pepper plants sprayed, 6 days. The series is classed as in vivo.
The test system is the same in series [4]. Briefly: Example B13: drench activity against Myzus persicae, pea seedlings in field soil. Particulars: 168 h, read-out: drench activity (mortality).
Series [5] deals with Aphis Craccivora (cowpea aphid). Briefly: Example B11: translaminar activity against Aphis craccivora on French bean leaves. The series is classed as in vivo. Particulars: 120 h, upper leaf side painted, aphids on lower side, 5 days. Here is the method: Translaminar Activity Against Aphis Craccivora (Cowpea Aphid)
French bean leaves (Phaseolus vulgaris) are infested with about 20 mixed age individuals on the lower leaf side using clip cages. 1 day after the infestation, the upper side of the leaves is treated with the test solution by painting. 5 days later, samples are checked for mortality.

The test system of series [6] is Plutella xylostella (diamond back moth). Briefly: Example B5: activity against Plutella xylostella, artificial diet in microtiter plate (larvicide, preventive). The class given is in vivo. The following applies: 120 h, L2 larvae, 5 days, read-out: activity (larval mortality, antifeedant, growth regulation). As to the method: Activity Against Plutella xylostella (Diamond Back Moth)
(Larvicide, Feeding/Residual Contact Activity, Preventive)
24-well microtiter plate (MTP) with artificial diet is treated with test solutions by pipetting. After drying, the MTP's are infested with larvae (L2)(10-15 per well). After an incubation period of 5 days, samples are checked for larval mortality, antifeedant and growth regulation.

The test system of series [7] is Nilaparvata lugens (brown rice planthopper). Briefly: Example B8: activity against Nilaparvata lugens, sprayed rice seedlings (larvicide, feeding/contact). The following applies: in Oryza sativa, read-out: activity (mortality, growth regulation, effects on F1 generation).
Series [8] has as its system Myzus persicae (green peach aphid). Briefly: Example B1: activity against Myzus persicae, sprayed sunflower leaf discs (feeding/residual contact, preventive). Particulars: foliar, 144 h, read-out: activity (mortality).
Series [9] has as its system Aonidiella Aurantii (red scale). Briefly: Example B12: activity against Aonidiella aurantii, dipped potato tubers. The series is classed as in vivo. Particulars: 6-8 weeks after application, read-out: activity (number of crawlers of the next generation). From the text:
Activity Against Aonidiella Aurantii (Red Scale)
Treatment of potato tubers by dipping the in the test solution. One day later, tubers are infested with about 50 crawlers. 6-8 weeks after application samples are checked for the number of crawlers of the next generation (compared to the non treated samples).

Series [10] concerns Bemisia tabaci (tobacco white fly). The experiment in a line: Example B7: activity against Bemisia tabaci, sprayed bean plants (larvicide, contact/feeding). The class given is in vivo. Particulars: 504 h, bean plants with N-2 nymphs sprayed, three weeks, read-out: activity (efficacy, number of emerged adults). An outline of the steps:
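After a 4-day egg-laying period and 7 further days, bean plants bearing hatched N-2 nymphs were sprayed with test solutions (2 replicates). Emerged adults were counted three weeks later; efficacy was derived by comparison with untreated samples.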

In series [11] the test system is Myzus persicae (green peach aphid). The experiment in a line: Example B2: activity against Myzus persicae, pea seedling roots in test solution (systemic/feeding, curative). Particulars: 144 h, read-out: activity (mortality).
For series [12], the system named is Aphis Craccivora (cowpea aphid). Briefly: Example B10: activity against Aphis craccivora, pea seedling roots in test solution (systemic/feeding). The series is classed as in vivo. Particulars: 144 h, roots of infested pea seedlings in test solution, 6 days. From the text: (§4) Activity Against Aphis Craccivora (Cowpea Aphid)
(Mixed Population, Systemic/Feeding)

Series [13] shares this test system. Briefly: Example B9: activity against Aphis craccivora, sprayed pea seedlings (contact/feeding). The series is classed as in vivo. The following applies: 144 h, infested pea seedlings sprayed, 6 days.
Text: as §4
(Mixed Population, Contact/Feeding)
6 days after treatment, samples are checked for mortality.

Series [14] relates to Thrips tabaci (onion thrips). The experiment in a line: Example B3: activity against Thrips tabaci, sprayed sunflower leaf discs (feeding/residual contact, preventive). Particulars: foliar, 144 h, mixed population, 6 days. The series is classed as in vivo. From the text: Activity Against Thrips tabaci (Onion Thrips)
(Mixed Population, Feeding/Residual Contact Activity, Preventive)

The subject of series [15] is Tetranychus urticae (two-spotted spider mite). Briefly: Example B4: activity against Tetranychus urticae, sprayed bean leaf discs (feeding/residual contact, preventive). Particulars: foliar, 192 h, read-out: activity (egg, larval and adult mortality).
Series [16] concerns Aphis Craccivora (cowpea aphid). The experiment in a line: Example B16: activity against Aphis craccivora on broad bean plants, adjuvant effect, curative (EC050 spray). The class given is in vivo. Particulars: 3 ppm, adjuvant (if any) 0.1% (v/v), 7 days after treatment. As to the method:
One day after infestation, plants are treated with diluted test solutions of the compound formulated as EC050 in a spray chamber (4 replicates). Optionally, an adjuvant is added with 0.1% (v/v) to the spray solution. 7 days after treatment samples are checked for mortality. Efficacy was calculated with the aid of Abbott's formula.

Series [17] has as its system Frankliniella occidentalis (western flower thrips). The experiment in a line: Example B6: activity against Frankliniella occidentalis, bean leaf discs or bean plants. Particulars: foliar, 6 days (leaf discs) or 14 days (plants) after infestation, read-out: activity (reduction of treated population). The series is classed as in vivo. The gist of the method:
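Bean leaf discs on agar or whole bean plants sprayed with diluted test solutions, then infested with a mixed thrips population after drying. Population reduction versus untreated assessed 6 days (discs) or 14 days (plants) after infestation.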

The mark [18] stands for this setting: infestation 0 days after application.
Where [19] appears, read: re-infestation 7 days after application.
[20] abbreviates: re-infestation 14 days after application.
[21] abbreviates: re-infestation 21 days after application.
The mark [22] stands for this setting: re-infestation 28 days after application.

For the molecule `CCOC(=O)OC1=C(c2c(C)cc(C)cc2C)C(=O)NC12CCN(OC)CC2` [A18, reference compound], in [1], the “plant damage on pepper plants / plant compatibility (in words)” value is “damages these to an untolerable high extend”. Besides, the “Mortality (%) xx days after application (drench, systemic action, persistence)” value (from here on “Mortality (%) xx days after application”) in series [2] (setting [18]) worked out at 100%; in series [2] (setting [19]), 100%; in series [2] (setting [20]), 98%; in series [2] (setting [21]), 95%; in series [2] (setting [22]), 95%.

With `CCOC(=O)OC1=C(c2c(C)cc(C)cc2C)C(=O)N(OCOC)C12CCN(OC)CC2` [P1.7, carbonic acid ethyl ester 8-methoxy-1-methoxymethoxy-2-oxo-3-(2,4,6-trimethyl-phenyl)-1,8-diaza-spiro[4.5]dec-3-en-4-yl ester], the mortality at 200 ppm in [3] was no less than 80%. In addition, in [4], the mortality at 25 ppm is greater than 80%. In addition, the mortality at 400 ppm in series [5], in series [6], in [7], in series [8] and in series [11] was greater than 80% each time. Besides, the “plant damage on pepper plants / plant compatibility (in words)” value in series [1] is listed as “no plant damage at all”. Besides, the pest or weed control at 200 ppm in series [9] and in series [10] was greater than 80% throughout. The “Mortality (%) xx days after application” value is recorded as 99% in series [2] (setting [18]); 100% in [2] (setting [19]); 98% in [2] (setting [20]); 98% in series [2] (setting [21]); 97% in [2] (setting [22]). Besides, the “insecticidal action on Myzus persicae compared with state-of-the-art compound A18 (in words)” value in series [2] is recorded as “very similar to the action of the compound of the state of the art”.

In series [3], `CCOC(=O)OC1=C(c2c(C)cc(C)cc2C)C(=O)N(OC)C12CCN(OC)CC2` [P1.8] had a mortality at 200 ppm of no less than 80%. The mortality at 25 ppm in series [4] was greater than 80%. The mortality at 400 ppm in [12], in series [5], in series [6], in [13], in series [7] and in series [8] was greater than 80% throughout. The mortality at 400 ppm in series [14], in series [15] and in [11] was greater than 80% throughout. For the same molecule, the pest or weed control at 200 ppm in series [9] and in series [10] was greater than 80% each time.

In series [3], `CCOC(=O)OC1=C(c2c(C)cc(C)cc2C)C(=O)N(O)C12CCN(OC)CC2` [P1.11, carbonic acid ethyl ester 1-hydroxy-8-methoxy-2-oxo-3-(2,4,6-trimethyl-phenyl)-1,8-diaza-spiro[4.5]dec-3-en-4-yl ester] registered a mortality at 200 ppm of no less than 80%. In series [4], the mortality at 25 ppm is greater than 80%. Further, the mortality at 400 ppm in [12], in [6], in series [7], in series [8], in series [14] and in series [15] was greater than 80% in each case. Besides, in [11], the mortality at 400 ppm is greater than 80%. Also, the “plant damage on pepper plants / plant compatibility (in words)” value in [1] is “no plant damage at all”. For the same molecule, the pest or weed control at 200 ppm in series [9] and in [10] was greater than 80% throughout. Also, the “Mortality (%) xx days after application” value was determined as 97% in [2] (setting [18]); 95% in series [2] (setting [19]); 95% in [2] (setting [20]); 100% in [2] (setting [21]); 100% in series [2] (setting [22]). Besides, in [2], the “insecticidal action on Myzus persicae compared with state-of-the-art compound A18 (in words)” value is “very similar to the action of the compound of the state of the art”.

Molecule `CCOC(=O)OC1=C(c2c(C)cc(C)cc2C)C(=O)N(OCC)C12CCN(OC)CC2` [P1.15] yielded a mortality at 200 ppm in series [3] of no less than 80%. The mortality at 25 ppm in series [4] was greater than 80%. Also, the mortality at 400 ppm in [12], in [5], in series [13], in series [7], in [8] and in series [15] was greater than 80% each time. For the same molecule, in series [11], the mortality at 400 ppm is greater than 80%. Also, the “Abbott's efficacy (%) against Aphis craccivora” value was 3% in [16] (Table B16a) and 11% in [16] (Table B16b). Moreover, the pest or weed control at 200 ppm in series [9] and in series [10] was greater than 80% throughout. In addition, in series [17], the pest or weed control at 400 ppm was greater than 80%.

Consider `COCON1C(=O)C(c2c(C)cc(C)cc2C)=C(O)C12CCN(OC)CC2` [P2.6, 4-hydroxy-8-methoxy-1-methoxymethoxy-3-(2,4,6-trimethyl-phenyl)-1,8-diaza-spiro[4.5]dec-3-en-2-one], for which the mortality at 200 ppm in series [3] was no less than 80%. The mortality at 25 ppm in series [4] is greater than 80%. For the same molecule, the mortality at 400 ppm in [12], in [5], in series [6], in series [13], in [7] and in [8] was greater than 80% in each case. In addition, the mortality at 400 ppm in series [14] and in series [11] was greater than 80% throughout. The pest or weed control at 200 ppm in series [9] and in [10] was greater than 80% throughout. Moreover, the pest or weed control at 400 ppm in series [17] was greater than 80%.
